Measured values taken from patent US10023592B2, “Bromodomain inhibitors” (Celgene Quanticel Research, Inc., priority 2013, dated 2018).

Key:
[1] = tested on: NCI-H460, human non-small cell lung cancer cells; test: Cell-MTS proliferation assay, NCI-H460; type: cell-based; conditions: Homo sapiens, 168 hr
Outline: (§1)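 Seeded for ~90% confluence at 7 days (Raji 15,000, HL-60 5,000, NCI-H460 3,000 cells/well); compound added 24 h post-plating as 11-point dilution, 100 μM to 2.0 nM final.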

[2] = target: BRD4(BD1) (Homo sapiens (Human), UniProt O60885); test: In vitro enzyme inhibition assay (BRD4 AlphaScreen); type: binding
Outline: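 His-tagged BRD4 tested by AlphaScreen for binding of biotinylated H4K5/8/12/16-tetraacetyl peptide. After 20 min at room temperature, streptavidin donor and nickel chelate acceptor beads added (5 μg/mL final each). IC50 determined.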

[3] = tested on: Raji, human Burkitts lymphoma cells; test: Cell-MTS proliferation assay, Raji; type: cell-based; conditions: Homo sapiens, 168 hr
Outline: as §1

[4] = tested on: HL-60, human proleukemia cells; test: Cell-MTS proliferation assay, HL-60; type: cell-based; conditions: Homo sapiens, 168 hr
Outline: as §1

[5] = NCI-H460, Cell-MTS, class symbols A/B/C
[6] = Raji, Cell-MTS, class symbols A/B/C
[7] = HL-60, Cell-MTS, class symbols A/B/C
[8] = NCI-H460, Cell-MTS proliferation
[9] = in vitro enzyme inhibition assay
[10] = Cell-MTS proliferation, NCI-H460 cells
[11] = Cell-MTS proliferation, Raji cells
[12] = Cell-MTS proliferation, HL-60 cells

Row | Structure (SMILES) | IC50 [1, 5] [nM] | IC50 ([2]; class symbols A/B/C) [nM] | IC50 [3, 6] [nM] | IC50 [4, 7] [nM] | IC50 [1, 8] [nM] | IC50 [2, 9] [nM] | IC50 ([3]; Raji, Cell-MTS proliferation) [nM] | IC50 ([4]; HL-60, Cell-MTS proliferation) [nM] | IC50 [1, 10] [nM] | IC50 [3, 11] [nM] | IC50 [4, 12] [nM]
1 | CCS(=O)(=O)Nc1ccc(Oc2ccc(F)cc2F)c(-c2cn(C)c(=O)c3ccccc23)c1 [Example 93, N-[4-(2,4-difluorophenoxy)-3-(2-methyl-1-oxoisoquinolin-4-yl)phenyl]ethanesulfonamide] | > 5000 | < 500 | < 500 | < 500 |  |  |  |  |  |  | 
2 | Cc1cc(-c2cc(OCC3CC3)cc(S(C)(=O)=O)c2)cn(C)c1=O [Example 325, 5-[3-(cyclopropylmethoxy)-5-methylsulfonylphenyl]-1,3-dimethylpyridin-2-one] |  |  |  |  | > 5000 | < 500 | 500 to 5000 | 500 to 5000 |  |  | 
3 | CCS(=O)(=O)Nc1cccc(-c2cn(C)c(=O)c3ccc(-c4ccc(C)nc4)cc23)c1 [Example 72, N-[3-[2-methyl-6-(6-methylpyridin-3-yl)-1-oxoisoquinolin-4-yl]phenyl]ethanesulfonamide] | 500 to 5000 | < 500 | < 500 | < 500 |  |  |  |  |  |  | 
4 | CCS(=O)(=O)Nc1ccc(Oc2ccc(F)cc2F)c(-c2cc(C3CC3)c(=O)n(C)c2)c1 [Example 140, N-[3-(5-cyclopropyl-1-methyl-6-oxopyridin-3-yl)-4-(2,4-difluorophenoxy)phenyl]ethanesulfonamide] |  |  |  |  | > 5000 | < 500 | < 500 | < 500 |  |  | 
5 | Cn1cc(-c2cc(S(N)(=O)=O)ccc2NCC2CC2)ccc1=O [Example 453, 4-(cyclopropylmethylamino)-3-(1-methyl-6-oxopyridin-3-yl)benzenesulfonamide] |  |  |  |  |  | > 5000 |  |  | > 5000 | > 5000 | > 5000
6 | CCS(=O)(=O)Nc1ccnc(-c2cn(C)c(=O)c3ccc(-c4cnn(C)c4)cc23)c1 [Example 213, N-[2-[2-methyl-6-(1-methylpyrazol-4-yl)-1-oxoisoquinolin-4-yl]pyridin-4-yl]ethanesulfonamide] |  |  |  |  | > 5000 | < 500 | 500 to 5000 | 500 to 5000 |  |  | 
7 | Cc1cc(-c2cc(NS(C)(=O)=O)ccc2OC2CCOC2)cn(C)c1=O (stereo not shown) [Example 444, N-[3-(1,5-dimethyl-6-oxopyridin-3-yl)-4-(oxolan-3-yloxy)phenyl] methanesulfonamide] |  |  |  |  |  | < 500 |  |  | > 5000 | < 500 | < 500
8 | CCS(=O)(=O)Nc1ccc(Oc2ccc(F)cc2F)c(-c2ccc(=O)n(C)c2)c1 [Example 99, N-[4-(2,4-difluorophenoxy)-3-(1-methyl-6-oxopyridin-3-yl)phenyl]ethanesulfonamide] | > 5000 | < 500 | < 500 | < 500 |  |  |  |  |  |  | 
9 | Cn1cc(-c2cc(S(C)(=O)=O)ccc2NCC2CC2)c2ccc(F)cc2c1=O [Example 196, 4-[2-(cyclopropylmethylamino)-5-methylsulfonylphenyl]-7-fluoro-2-methylisoquinolin-1-one] |  |  |  |  | > 5000 | < 500 | < 500 | < 500 |  |  | 
10 | Cc1cc(-c2cc(S(C)(=O)=O)ccc2OCC2CC2)cn(CC2COC2)c1=O [Example 245, 5-[2-(cyclopropylmethoxy)-5-methylsulfonylphenyl]-3-methyl-1-(oxetan-3-ylmethyl)pyridin-2-one] |  |  |  |  | > 5000 | 500 to 5000 | > 5000 | > 5000 |  |  | 
11 | CCS(=O)(=O)c1ccc(OCC2CC2)c(-c2cn(C)c(=O)c3cncn23)c1 [Example 368, 5-[2-(cyclopropylmethoxy)-5-ethylsulfonylphenyl]-7-methylimidazo[1,5-a]pyrazine-8-one] |  |  |  |  | 500 to 5000 | < 500 | < 500 | < 500 |  |  | 
12 | CCS(=O)(=O)Nc1ncc(OCC2CC2)c(-c2cn(C)c(=O)c3ccccc23)n1 [Example 155, N-[5-(cyclopropylmethoxy)-4-(2-methyl-1-oxoisoquinolin-4-yl)pyrimidin-2-yl]ethanesulfonamide] |  |  |  |  | > 5000 | < 500 | < 500 | < 500 |  |  | 
13 | CCOc1ccc(S(=O)(=O)CC)cc1-c1cc(N(C)C)c(=O)n(C)c1 [Example 469, 3-(dimethylamino)-5-(2-ethoxy-5-ethylsulfonylphenyl)-1-methylpyridin-2-one] |  |  |  |  |  | < 500 |  |  | > 5000 | < 500 | < 500
14 | Cc1cc(-c2cc(S(C)(=O)=O)ccc2O[C@H]2CC[C@H](O)CC2)cn(C)c1=O [Example 401, 5-[2-(4-hydroxycyclohexyl)oxy-5-methylsulfonylphenyl]-1,3-dimethylpyridin-2-one] |  |  |  |  |  | < 500 |  |  | > 5000 | 500 to 5000 | < 500
15 | CCc1ccc(S(C)(=O)=O)cc1-c1ccc(=O)n(C)c1 [Example 312, 5-(2-ethyl-5-methylsulfonylphenyl)-1-methylpyridin-2-one] |  |  |  |  | > 5000 | 500 to 5000 | > 5000 | > 5000 |  |  | 
16 | COCC1COc2c(cc(S(C)(=O)=O)cc2-c2cn(C)c(=O)c3ccccc23)O1 (stereo not shown) [Example 501, 4-[2-(methoxymethyl)-7-methylsulfonyl-2,3-dihydro-1,4-benzodioxin-5-yl]-2-methylisoquinolin-1-one] |  |  |  |  |  | < 500 |  |  | > 5000 | 500 to 5000 | 500 to 5000
17 | Cc1cc(-c2cc(S(C)(=O)=O)ccc2O[C@H]2CC[C@H](N)CC2)cn(C)c1=O [Example 404, 5-[2-(trans-4-aminocyclohexyl)oxy-5-methylsulfonylphenyl]-1,3-dimethylpyridin-2-one] |  |  |  |  |  | < 500 |  |  | > 5000 | > 5000 | < 500
18 | Cn1cc(-c2ncc3c(=O)n(C)cc(-c4cc(S(C)(=O)=O)ccc4OCC4CC4)c3n2)cn1 [Example 224, 8-[2-(cyclopropylmethoxy)-5-methylsulfonylphenyl]-6-methyl-2-(1-methylpyrazol-4-yl)pyrido[4,3-d]pyrimidin-5-one] |  |  |  |  | > 5000 | < 500 | < 500 | < 500 |  |  | 
19 | Cn1cc(-c2cn(CS(C)(=O)=O)c(=O)cc2OCC2CC2)c2ccccc2c1=O [Example 384, 4-[4-(cyclopropylmethoxy)-1-(methylsulfonylmethyl)-6-oxopyridin-3-yl]-2-methylisoquinolin-1-one] |  |  |  |  |  | < 500 |  |  | > 5000 | 500 to 5000 | < 500
20 | Cn1cc(-c2cc(S(C)(=O)=O)ccc2NCC2CC2)ccc1=O [Example 468, 5-[2-(cyclopropylmethylamino)-5-methylsulfonylphenyl]-1-methylpyridin-2-one] |  |  |  |  |  | < 500 |  |  | > 5000 | > 5000 | 500 to 5000
21 | Cc1cc(-c2nc(NS(C)(=O)=O)ncc2Oc2ccc(F)cc2F)cn(CC2CC2)c1=O [Example 248, N-[4-[1-(cyclopropylmethyl)-5-methyl-6-oxopyridin-3-yl]-5-(2,4-difluorophenoxy)pyrimidin-2-yl]methanesulfonamide] |  |  |  |  | > 5000 | < 500 | < 500 | < 500 |  |  | 
22 | Cn1cc(-c2cccc(NS(C)(=O)=O)c2)cc(O)c1=O [Example 467, N-[3-(5-hydroxy-1-methyl-6-oxopyridin-3-yl)phenyl]methanesulfonamide] |  |  |  |  |  | 500 to 5000 |  |  | > 5000 | > 5000 | > 5000
